In US20110293545A1, “Dolichos Biflorus Extract For Use In Cosmetic Skin Treatment” (Cognis IP Management GmbH, priority 2009, published 2011):

How the values were obtained:
Type in all cases: cell-based
collagen I = experiment: Stimulation of collagen I production (ELISA of released collagen peptides, Bradford cell proteins); settings: dose 20 μg/ml; 72 hours; human dermal fibroblasts
Procedure: The purpose of this assay was the evaluation of the potential of Dolichos biflorus seed extract to increase the level of collagen I. Human dermal fibroblasts (from skin of aesthetic surgery) were cultivated in growth medium (DMEM Invitrogen N° 41965-039 with FCS at 10% (v/v)) for 24 hours at 37° C. […] The amount of cellular proteins was determined on cell homogenate (in a solution of NaOH 0.1 N) by the Bradford's method. The quantity of synthesized type I collagen was determined by measuring the amount of released collagen peptides in cell culture medium by an ELISA method (kit […]° from Osteomedical). They are expressed in % protein referring to the control (=standard medium with cells).

COL5A1 = experiment: qRT-PCR of collagen V encoding gene COL5A1 in human dermal fibroblasts; settings: 10 ng/ml, with carrier protein; 24 h incubation; relative to EF1α
Procedure: (§1) This test was performed to evaluate the stimulation efficacy of a Dolichos biflorus extract according to example 3 on the expression of collagen V encoding genes in human fibroblasts. As 2 genes are responsible of the production of collagen V, namely the genes COL5A1 and COL5A2, both gene expressions were analysed.
(§2) Human dermal fibroblasts (obtained from plastic surgery) were inoculated in standard DMEM medium of cell culture with 10% FCS (Invitrogen). When cell confluence was arisen, the substances to be tested were introduced in new DMEM without FCS. Fibroblasts were incubated during 24 h with the test substances, then total RNA was extracted using a commercial extraction kit (Nucleospin™ RNA II, Macherey-Nagel™, France). Quantification and quality control of total RNA were performed by measuring […] at 260 and 280 nm. […]
(§3) The reverse transcription step was performed with a reverse transcription (RT) kit (ThermoScript™ RT-PCR System, Invitrogen, France) using 0.1 μg of total RNA in a 20 μl final volume. The quantitative PCRs were performed on 2 μl of the RT mix with specific primers in a 20 μl final volume, according to the manufacturer's informations (LightCycler®480 SYBR Green I Master, Roche, France). […] Results, expressed as percentage RNA compared to the control, are the mean of three independent assays (table 3). […]

COL5A2 = experiment: qRT-PCR of collagen V encoding gene COL5A2 in human dermal fibroblasts; settings: 10 ng/ml, with carrier protein; 24 h incubation; relative to EF1α
Procedure: as §1, §2, §3

Compound | Cell proteins (collagen I) [% protein against control] | Released type I collagen (collagen I) [% protein against control] | RNA level of COL5A1 (COL5A1) [%/control] | RNA level of COL5A2 (COL5A2) [%/control]
O=C1O[C@H]([C@@H](O)CO)C(O)=C1O [Vitamin C] | 77.3 | 118.3 |  | 
TGF-β1: growth factor, positive reference; strong transcription activator of collagen genes; added with a carrier protein |  |  | 567 | 171
